For assay [1], the target named is Biotinylated KRAS G12C protein (Homo sapiens (Human), UniProt P01116, C118S/C51S/C80L/G12C). In words: SOS-catalyzed nucleotide exchange assay (TR-FRET). The format is biochemical. Conditions: in vitro apparent potency; preincubation time of 60 minutes prior to addition of SOS. In outline: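 Biotinylated KRAS G12C preloaded with Bodipy-GDP and Tb-streptavidin, then incubated with compound (10-point, 3-fold series) for 60 min at RT. Exchange started with SOS and GTP for 60 min. TR-FRET 520/495 ratio normalised to DMSO and saturating-inhibitor controls; four-parameter fit.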

The next assay relates to phospho-ERK. In words: Cellular phospho-ERK assay. Conditions: NCI-H358 cells; 2 hour incubation; ratio of p-Erk vs total Erk; read-out: IC50 (nM) pERK (Cell). The assay is classed as cell-based. In outline:
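NCI-H358 cells seeded overnight, then exposed to compound dose-response titrations for 2 hours at 37° C. in RPMI. Lysates assayed by AlphaLISA SureFire Ultra multiplex for p-Erk and total Erk; ratio p-Erk/total Erk used as readout, IC50 from 4-parameter logistic fit.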

In the case of `C=CC(=O)N1C[C@H](C)N(c2nc(=O)n3c4nc(c(F)cc24)-c2c(F)ccc(F)c2OCCOc2ccnc(C4CC4)c2-3)C[C@H]1C` [Example 111, 6-cyclopropyl-2-[(2S,5R)-2,5-dimethyl-4-(prop-2-enoyl)piperazin-1-yl]-14,17,20-trifluoro-11,12-dihydro-4H-1,18-ethenopyrido[4,3-e]pyrimido[1,6-g][1,4,7,9]benzodioxadiazacyclododecin-4-one], the IC50 in assay [1] turned out to be 17 nM; with phospho-ERK it was 154 nM.

On to `C=CC(=O)N1C[C@H](C)N(c2nc(=O)n3c4nc(c(F)cc24)-c2cccc(O)c2OCCCc2ccnc(C(C)C)c2-3)C[C@H]1C` [Example 113, 2-[(2S,5R)-2,5-dimethyl-4-(prop-2-enoyl)piperazin-1-yl]-20-fluoro-14-hydroxy-6-(propan-2-yl)-11,12-dihydro-4H,10H-1,18-(ethanediylidene)pyrido[4,3-e]pyrimido[1,6-g][1,7,9]benzoxadiazacyclododecin-4-one], for which the values for the IC50 (in assay [1]; with phospho-ERK) were 33 nM and 113 nM, respectively.

`C=CC(=O)N1C[C@H](C)N(c2nc(=O)n3c4nc(c(F)cc24)-c2cccc(F)c2OCCOc2ccnc(C(C)C)c2-3)C[C@H]1C` [Example 114, 2-[(2S,5R)-2,5-dimethyl-4-(prop-2-enoyl)piperazin-1-yl]-14,20-difluoro-6-(propan-2-yl)-11,12-dihydro-4H-1,18-(ethanediylidene)pyrido[4,3-e]pyrimido[1,6-g][1,4,7,9]benzodioxadiazacyclododecin-4-one]: the IC50 is 43 nM in assay [1] and 112 nM in the assay on phospho-ERK.

`C=CC(=O)N1CC(C)N(c2nc(=O)n3c4nc(c(F)cc24)-c2c(F)cccc2COCCc2ccnc(C(C)C)c2-3)CC1C` [Example 115, 2-[(2S,5R)-2,5-dimethyl-4-(prop-2-enoyl)piperazin-1-yl]-17,20-difluoro-6-(propan-2-yl)-10,11-dihydro-1,18-ethenopyrido[3,4-e]pyrimido[6,1-c][9,2,4]benzoxadiazacyclododecin-4(13H)-one]: the IC50 in assay [1] was 237 nM; in the assay with phospho-ERK, 1020 nM.

For `C=CC(=O)N1C[C@H](C)N(c2nc(=O)n3c4nc(c(F)cc24)-c2cccc(C(F)(F)F)c2OCCOc2ccnc(C(C)C)c2-3)C[C@H]1C` [Example 116, 2-[(2S,5R)-2,5-dimethyl-4-(prop-2-enoyl)piperazin-1-yl]-20-fluoro-6-(propan-2-yl)-14-(trifluoromethyl)-11,12-dihydro-4H-1,18-ethenopyrido[4,3-e]pyrimido[1,6-g][1,4,7,9]benzodioxadiazacyclododecin-4-one], the IC50 turned out to be 1100 nM in assay [1] and 2730 nM in the assay with phospho-ERK.

For the compound `C=CC(=O)N1CCN(c2nc(=O)n3c4nc(c(F)cc24)-c2c(F)cccc2CC[C@@H](O)Cc2ccnc(C(C)C)c2-3)[C@@H](C)C1` [Example 118-2, 17,20-difluoro-11-hydroxy-2-[(2S)-2-methyl-4-(prop-2-enoyl)piperazin-1-yl]-6-(propan-2-yl)-10,11,12,13-tetrahydro-4H-1,18-ethenopyrido[3,4-e]pyrimido[6,1-c][2,4]benzodiazacyclododecin-4-one], the values for the IC50 (in assay [1]; with phospho-ERK) were 54 nM and 1220 nM, respectively.

As to `C=C(C#N)C(=O)N1C[C@H](C)N(c2nc(=O)n3c4nc(c(Cl)cc24)-c2c(F)ccc(F)c2OCCCc2ccnc(C(C)C)c2-3)C[C@H]1C` [Example 121, 2-{(2R,5S)-4-[20-chloro-14,17-difluoro-4-oxo-6-(propan-2-yl)-11,12-dihydro-4H,10H-1,18-ethenopyrido[4,3-e]pyrimido[1,6-g][1,7,9]benzoxadiazacyclododecin-2-yl]-2,5-dimethylpiperazine-1-carbonyl}prop-2-enenitrile], the figures for the IC50 (in assay [1]; in the assay with phospho-ERK) were 195 nM and over 30000 nM, respectively.

Consider “[(2S)-4-[17,20-difluoro-4- oxo-6-(propan-2-yl)-11,12- dihydro-4H-1,18- (ethanediylidene)pyrido[4,3- e]pyrimido[1,6-g][1,4,7,9] benzodioxadiazacyclo- dodecin-2-yl]-1-(prop-2- enoyl)piperazin-2- yl]acetonitrile [Example 14a]”, for which the IC50 in assay [1] was 8.1 nM; in the assay on phospho-ERK, 1240 nM.

These data come from patent publication US20240043448A1, “Small Molecule Inhibitors of KRAS G12C Mutant” (Merck Sharp & Dohme LLC, priority 2019, published 2024).
